System: HBV
Assay: HBV replication inhibition assay (BDNA assay) in HepG2.2.15 cells
Format: cell-based, Hepatitis B virus
Details: 6 days, encapsidated HBV DNA in supernatant
Method: HBV replication inhibition by the disclosed compounds were determined in cells infected or transfected with HBV or cells with stably integrated HBV, such as HepG2.2.15 cells (Sells et al. 1987). In this example, HepG2.2.15 cells were maintained in cell culture medium containing 10% fetal bovine serum (FBS), Geneticin, L-glutamine, penicillin and streptomycin. HepG2.2.15 cells were seeded in 96-well plates at a density of 40,000 cells/well and were treated with serially diluted compounds at a final DMSO concentration of 0.5% either alone or in combination by adding drugs in a checker box format. Cells were incubated with compounds for three days, after which medium was removed and fresh medium containing compounds was added to cells and incubated for another three days. At day 6, supernatant was removed and treated with DNase at 37° C. for 60 minutes, followed by enzyme inactivation at 75° C. for 15 minutes. Encapsidated HBV DNA was released from the virions and covalently linked HBV polymerase by incubating in lysis buffer (Affymetrix QS0010) containing 2.5 μg proteinase K at 50° C. for 40 minutes. HBV DNA was denatured by addition of 0.2 M NaOH and detected using a branched DNA (BDNA) QuantiGene assay kit according to manufacturer recommendation (Affymetrix). HBV DNA levels were also quantified using qPCR, based on amplification of encapsidated HBV DNA extraction with QuickExtraction Solution (Epicentre Biotechnologies) and amplification of HBV DNA using HBV specific PCR probes that can hybridize to HBV DNA and a fluorescently labeled probe for quantitation. In addition, cell viability of HepG2.2.15 cells incubated with test compounds alone or in combination was determined by using CellTitre-Glo reagent according to the manufacturer protocol (Promega). The mean background signal from wells containing only culture medium was subtracted from all other samples, and percent inhibition at each compound concentration was calculated by normalizing to signals from HepG2.2.15 cells treated with 0.5% DMSO using equation E1.
% inhibition(DMSOave−Xi)DMSOave×100% E1:
where DMSOave is the mean signal calculated from the wells that were treated with DMSO control (0% inhibition control) and Xi is the signal measured from the individual wells. EC50 values, effective concentrations that achieved 50% inhibitory effect, were determined by non-linear fitting using Graphpad Prism software (San Diego, Calif.) and equation E2.
Y=Ymin+(Ymax−Ymin)/(1+10(Log EC50−X)×HillSlope) E2:
where Y represents percent inhibition values and X represents the logarithm of compound concentrations.
Selected disclosed compounds were assayed in the HBV replication assay (BDNA assay), as described above, and a representative group of these active compounds is shown in Table 5.

Compound	EC50
C[C@@H]1Cc2nn3c(c2CN1C(=O)Nc1ccnc(C(F)F)c1F)C(F)(F)CC(O)CC3 (single isomer, unassigned) [Example 122, (3R,9R*)—N-(2-(Difluoromethyl)-3-fluoropyridin-4-yl)-11,11-difluoro-9-hydroxy-3-methyl-3,4,8,9,10,11-hexahydro-1H-pyrido[4′,3′:3,4]pyrazolo[1,5-a]azepine-2(7H)-carboxamide]	2 nM
C[C@@H]1Cc2nn3c(c2CN1C(=O)Nc1ccc(F)c(C#N)c1)C(F)(F)CCC(F)(CO)C3 (single isomer, unassigned) [Example 111, (3R,8S*)—N-(3-Cyano-4-fluorophenyl)-8,11,11-trifluoro-8-(hydroxymethyl)-3-methyl-3,4,8,9,10,11-hexahydro-1H-pyrido[4′,3′:3,4]pyrazolo[1,5-a]azepine-2(7H)-carboxamide]	7 nM
N#Cc1cc(NC(=O)N2CCc3nn4c(c3C2)C(F)(F)CCC(CO)C4)ccc1F (single isomer, unassigned) [Example 23, (R*)—N-(3-Cyano-4-fluorophenyl)-11,11-difluoro-8-(hydroxymethyl)-3,4,8,9,10,11-hexahydro-1H-pyrido[4′,3′:3,4]pyrazolo[1,5-a]azepine-2(7H)-carboxamide]	18 nM
O=C(Nc1ccnc(C(F)F)c1F)N1CCc2nn3c(c2C1)C(F)(F)CCC(O)(COCC(F)F)C3 (single isomer, unassigned) [Example 36, (S*)-8-((2,2-Difluoroethoxy)methyl)-N-(2-(difluoromethyl)-3-fluoropyridin-4-yl)-11,11-difluoro-8-hydroxy-3,4,8,9,10,11-hexahydro-1H-pyrido[4′,3′:3,4]pyrazolo[1,5-a]azepine-2(7H)-carboxamide]	39 nM
N#Cc1cc(NC(=O)N2CCc3nn4c(c3C2)C(F)(F)CC(O)CC4)ccc1F (single isomer, unassigned) [Example 141, (S*)—N-(3-Cyano-4-fluorophenyl)-11,11-difluoro-9-hydroxy-3,4,8,9,10,11-hexahydro-1H-pyrido[4′,3′:3,4]pyrazolo[1,5-a]azepine-2(7H)-carboxamide]	16 nM
C[C@@H]1Cc2nn3c(c2CN1C(=O)Nc1ccnc(C(F)F)c1F)C(F)(F)CCC(O)(CF)C3 (single isomer, unassigned) [Example 88, (3R,8S*)—N-(2-(Difluoromethyl)-3-fluoropyridin-4-yl)-11,11-difluoro-8-(fluoromethyl)-8-hydroxy-3-methyl-3,4,8,9,10,11-hexahydro-1H-pyrido[4′,3′:3,4]pyrazolo[1,5-a]azepine-2(7H)-carboxamide]	118 nM
O=C(Nc1ccnc(Br)c1F)N1CCc2nn3c(c2C1)C(F)(F)CC(O)CC3 (single isomer, unassigned) [Example 140, (S*)—N-(2-Bromo-3-fluoropyridin-4-yl)-11,11-difluoro-9-hydroxy-3,4,8,9,10,11-hexahydro-1H-pyrido[4′,3′:3,4]pyrazolo[1,5-a]azepine-2(7H)-carboxamide]	27 nM
C[C@@H]1Cc2nn3c(c2CN1C(=O)Nc1ccc(F)c(C#N)c1)C(F)(F)CCC(O)(COCC(F)F)C3 (single isomer, unassigned) [Example 93, (3R,8R*)—N-(3-Cyano-4-fluorophenyl)-8-((2,2-difluoroethoxy)methyl)-11,11-difluoro-8-hydroxy-3-methyl-3,4,89,10,11-hexahydro-1H-pyrido[4′,3′:3,4]pyrazolo[1,5-a]azepine-2(7H)-carboxamide]	45 nM
C[C@@H]1Cc2nn3c(c2CN1C(=O)Nc1ccc(F)c(C#N)c1)C(F)(F)CCC(F)(CO)C3 (single isomer, unassigned) [Example 114, (3R,8R*)—N-(3-Cyano-4-fluorophenyl)-8,11,11-trifluoro-8-(hydroxylmethyl)-3-methyl-3,4,8,9,10,11-hexahydro-1H-pyrido[4′,3′:3,4]pyrazolo[1,5-a]azepine-2(7H)-carboxamide]	1 nM
C[C@@H]1Cc2nn3c(c2CN1C(=O)Nc1ccnc(Br)c1F)C(F)(F)CCC(O)(CF)C3 (single isomer, unassigned) [Example 87, (3R,8S*)—N-(2-Bromo-3-fluoropyridin-4-yl)-11,11-difluoro-8-(fluoromethyl)-8-hydroxy-3-methyl-3,4,8,9,10,11-hexahydro-1H-pyrido[4′,3′:3,4]pyrazolo[1,5-a]azepine-2(7H)-carboxamide]	39 nM
C#CC1(O)CCC(F)(F)c2c3c(nn2C1)CCN(C(=O)Nc1ccc(F)c(C#N)c1)C3 (single isomer, unassigned) [Example 60, (S*)—N-(3-Cyano-4-fluorophenyl)-8-ethynyl-11,11-difluoro-8-hydroxy-3,4,8,9,10,11-hexahydro-1H-pyrido[4′,3′:3,4]pyrazolo[1,5-a]azepine-2(7H)-carboxamide]	17 nM
N#Cc1cc(NC(=O)N2CCc3nn4c(c3C2)C(F)(F)CCC(COCC(F)F)C4)ccc1F (single isomer, unassigned) [Example 29, (R*)—N-(3-Cyano-4-fluorophenyl)-8-((2,2-difluoroethoxy)methyl)-11,11-difluoro-3,4,8,9,10,11-hexahydro-1H-pyrido[4′,3′:3,4]pyrazolo[1,5-a]azepine-2(7H)-carboxamide]	78 nM
N#Cc1cc(NC(=O)N2CCc3nn4c(c3C2)C(F)(F)CC(CO)CC4)ccc1F (single isomer, unassigned) [Example 134, (S*)—N-(3-Cyano-4-fluorophenyl)-11,11-difluoro-9-(hydroxymethyl) -3,4,8,9,10,11-hexahydro-1H-pyrido[4′,3′:3,4]pyrazolo[1,5-a]azepine-2(7H)-carboxamide]	17 nM
C[C@@H]1Cc2nn3c(c2CN1C(=O)Nc1ccnc(C(F)F)c1F)C(F)(F)CCC(O)(CF)C3 (single isomer, unassigned) [Example 85, (3R,8R*)—N-(2-(Difluoromethyl)-3-fluoropyridin-4-yl)-11,11-difluoro-8-(fluoromethyl)-8-hydroxy-3-methyl-3,4,8,9,10,11-hexahydro-1H-pyrido[4′,3′:3,4]pyrazolo[1,5-a]azepine-2(7H)-carboxamide]	45 nM
C[C@@H]1Cc2nn3c(c2CN1C(=O)Nc1ccnc(C(F)F)c1F)C(F)(F)CCC(CO)C3 (single isomer, unassigned) [Example 78, (3R,8S*)—N-(2-(Difluoromethyl)-3-fluoropyridin-4-yl)-11,11-difluoro-8-(hydroxymethyl)-3-methyl-3,4,8,9,10,11-hexahydro-1H-pyrido[4′,3′:3,4]pyrazolo[1,5-a]azepine-2(7H)-carboxamide]	30 nM
C[C@@H]1Cc2nn3c(c2CN1C(=O)Nc1ccnc(Br)c1F)C(F)(F)CC(O)(CF)CC3 (single isomer, unassigned) [Example 129, (3R,9S*)—N-(2-Bromo-3-fluoropyridin-4-yl)-11,11-difluoro-9-(fluoromethyl)-9-hydroxy-3-methyl-3,4,8,9,10,11-hexahydro-1H-pyrido[4′,3′:3,4]pyrazolo[1,5-a]azepine-2(7H)-carboxamide]	6 nM
C=CC1(O)CCC(F)(F)c2c3c(nn2C1)CCN(C(=O)Nc1ccc(F)c(C#N)c1)C3 (single isomer, unassigned) [Example 57, (S*)—N-(3-Cyano-4-fluorophenyl)-11,11-difluoro-8-hydroxy-8-vinyl-3,4,8,9,10,11-hexahydro-1H-pyrido[4′,3′:3,4]pyrazolo[1,5-a]azepine-2(7H)-carboxamide]	9 nM
C[C@@H]1Cc2nn3c(c2CN1C(=O)Nc1ccc(F)c(C#N)c1)C(F)(F)CC(O)(CO)CC3 (single isomer, unassigned) [Example 126, (3R,9S*)—N-(3-Cyano-4-fluorophenyl)-11,11-difluoro-9-hydroxy-9-(hydroxymethyl)-3-methyl-3,4,8,9,10,11-hexahydro-1H-pyrido[4′,3′:3,4]pyrazolo[1,5-a]azepine-2(7H)-carboxamide]	5 nM
C[C@@H]1Cc2nn3c(c2CN1C(=O)Nc1ccc(F)c(C(F)(F)F)c1)C(F)(F)CCC(CO)C3 (single isomer, unassigned) [Example 76, (3R,8S*)-11,11-Difluoro-N-(4-fluoro-3-(trifluoromethyl)phenyl)-8-(hydroxymethyl)-3-methyl-3,4,8,9,10,11-hexahydro-1H-pyrido[4′,3′:3,4]pyrazolo[1,5-a]azepine-2(7H)-carboxamide]	5 nM
